Data as given in patent US9200001B2, “Triazolyl PDE10 inhibitors” (Merck Sharp & Dohme Corp., priority 2011, dated 2015).

How the values were obtained:
human PDE10A2 = human PDE10A2 (Homo sapiens (Human), UniProt Q9Y233); experiment: PDE10 fluorescence polarization (IMAP FP) inhibition assay; type: biochemical; conditions: FAM-labeled cAMP 50 nM, room temperature, read-out: PDE10a Ki
In short: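 Cytoplasmic lysate of AD293 cells transiently expressing human PDE10A2, incubated 30 minutes at room temperature with 50 nM FAM-labeled cAMP in Tris pH 7.2 with MgCl2. Read by IMAP fluorescence polarization; 0% inhibition set by 1% DMSO, 100% by a reference PDE10 inhibitor.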

Chain of human PDE10A2 (Q9Y233 267-1055): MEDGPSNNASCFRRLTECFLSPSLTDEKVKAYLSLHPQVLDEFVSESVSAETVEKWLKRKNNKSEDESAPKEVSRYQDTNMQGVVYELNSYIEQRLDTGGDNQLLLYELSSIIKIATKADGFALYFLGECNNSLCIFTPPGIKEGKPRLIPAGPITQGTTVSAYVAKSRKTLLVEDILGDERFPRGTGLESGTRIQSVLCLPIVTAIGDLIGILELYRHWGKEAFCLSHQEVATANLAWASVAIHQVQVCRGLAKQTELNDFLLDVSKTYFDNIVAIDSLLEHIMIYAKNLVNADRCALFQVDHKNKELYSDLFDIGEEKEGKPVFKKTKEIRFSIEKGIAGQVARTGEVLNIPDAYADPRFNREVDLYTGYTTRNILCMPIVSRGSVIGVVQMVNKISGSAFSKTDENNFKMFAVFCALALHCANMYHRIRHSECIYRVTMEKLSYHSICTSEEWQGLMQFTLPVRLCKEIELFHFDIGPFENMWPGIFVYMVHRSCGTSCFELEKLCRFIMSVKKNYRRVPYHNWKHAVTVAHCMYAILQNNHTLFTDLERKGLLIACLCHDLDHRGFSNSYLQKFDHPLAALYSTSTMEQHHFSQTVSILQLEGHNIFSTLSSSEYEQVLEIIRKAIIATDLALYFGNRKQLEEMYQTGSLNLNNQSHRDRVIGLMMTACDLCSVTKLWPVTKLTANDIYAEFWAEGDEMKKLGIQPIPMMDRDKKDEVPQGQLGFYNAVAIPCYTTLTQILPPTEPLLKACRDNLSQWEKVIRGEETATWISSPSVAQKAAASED

SMILES	Ki (human PDE10A2) [nM]	melting point [°C]
Cc1nc(C)n(-c2cc([C@H]3C[C@@H]3c3nc4ccccc4n3C)nc(OC(C)C)n2)n1 (relative stereo) [Cpd 113, trans-2-{2-[6-(3,5-dimethyl-1H-1,2,4-triazol-1-yl)-2-(1-methylethoxy)pyrimidin-4-yl]cyclopropyl}-1-methyl-1H-benzimidazole]	0.62	133 to 135
Cc1nc(C)n(-c2cc([C@H]3C[C@@H]3c3nc4ccccc4n3C)nc(N3CCCC3)n2)n1 (relative stereo) [Cpd 116, trans-2-{2-[6-(3,5-dimethyl-1H-1,2,4-triazol-1-yl)-2-pyrrolidin-1-ylpyrimidin-4-yl]cyclopropyl}-1-methyl-1H-benzimidazole]	1.2	180 to 185
CCOc1nc([C@@H]2C[C@H]2c2nc3ccccc3n2C)cc(-n2nc(C)nc2C)n1 (relative stereo) [Example 14, trans-2-(2-(6-(3,5-dimethyl-1H-1,2,4-triazol-1-yl)-2-ethoxypyrimidin-4-yl)cyclopropyl)-1-methyl-1H-benzo[d]imidazole]	–	82 to 83
Cc1nc(C)n(-c2cc([C@@H]3C[C@H]3c3nc4ccccc4n3C)nc(C#N)n2)n1 (relative stereo) [Example 21, trans-4-(3,5-dimethyl-1H-1,2,4-triazol-1-yl)-6-(2-(1-methyl-1H-benzo[d]imidazol-2-yl)cyclopropyl)pyrimidine-2-carbonitrile]	–	229 to 231
CNc1nc([C@H]2C[C@@H]2c2nc3ccccc3n2C)cc(-n2nc(C)nc2C)n1 (relative stereo) [Example 3, trans-4-(3,5-dimethyl-1H-1,2,4-triazol-1-yl)-N-methyl-6-(2-(1-methyl-1H-benzo[d]imidazol-2-yl)cyclopropyl)pyrimidin-2-amine]	–	212 to 214
Cc1nc(C)n(-c2cc([C@H]3C[C@@H]3c3nc4ccccc4n3C)nc(N(C)C)n2)n1 (relative stereo) [Cpd 114, trans-4-(3,5-dimethyl-1H-1,2,4-triazol-1-yl)-N,N-dimethyl-6-[2-(1-methyl-1H-benzimidazol-2-yl)cyclopropyl]pyrimidin-2-amine]	1.2	164 to 165
Cc1nc(C)n(-c2cc([C@H]3C[C@@H]3c3nc4ccccc4n3C)nc(N3CCOCC3)n2)n1 (relative stereo) [Cpd 117, trans-2-{2-[6-(3,5-dimethyl-1H-1,2,4-triazol-1-yl)-2-morpholin-4-ylpyrimidin-4-yl]cyclopropyl}-1-methyl-1H-benzimidazole]	–	226 to 228
Cc1nc(C)n(-c2cc([C@H]3C[C@@H]3c3nc4ccccc4n3C)nc(C(N)=O)n2)n1 (relative stereo) [Cpd 130, trans-4-(3,5-dimethyl-1H-1,2,4-triazol-1-yl)-6-[2-(1-methyl-1H-benzimidazol-2-yl)cyclopropyl]pyrimidine-2-carboxamide]	1.6	119 to 121
Cc1nc(C2CC2c2nc3ccccc3n2C)cc(-n2nc(C)nc2C(C)C)n1 (centres unmarked) [Cpd 56, 2-(2-(6-(5-isopropyl-3-methyl-1H-1,2,4-triazol-1-yl)-2-methylpyrimidin-4-yl)cyclopropyl)-1-methyl-1H-benzo[d]imidazole]	1.7	–
Cc1cc([C@H]2C[C@@H]2c2nc3ccccc3n2C)cc(-n2nc(C)nc2C)n1 (relative stereo) [Cpd 110, trans-2-{2-[2-(3,5-dimethyl-1H-1,2,4-triazol-1-yl)-6-methylpyridin-4-yl]cyclopropyl}-1-methyl-1H-benzimidazole]	18.4	–
Cc1nc([C@@H]2C[C@H]2c2nc3ccc(F)cc3[nH]2)cc(-n2nc(C)nc2C)n1 [Cpd 68, 2-{(1R,2R)-2-[6-(3,5-dimethyl-1H-1,2,4-triazol-1-yl)-2-methylpyrimidin-4-yl]cyclopropyl}-6-fluoro-1H-benzimidazole]	9.2	–
Cc1nc([C@H]2C[C@@H]2c2nc3ccccc3n2C)cc(-n2nc(C)nc2C2CCN(C(=O)OC(C)(C)C)CC2)n1 (stereo in doubt) [Cpd 84, tert-butyl 4-(3-methyl-1-{2-methyl-6-[2-(1-methyl-1H-benzimidazol-2-yl)cyclopropyl]pyrimidin-4-yl}-1H-1,2,4-triazol-5-yl)piperidine-1-carboxylate]	> 75	–
Cc1nc([C@H]2C[C@@H]2c2nc3ccccc3s2)cc(-n2nc(C)nc2C)n1 (relative stereo) [Cpd 129, trans-2-{2-[6-(3,5-dimethyl-1H-1,2,4-triazol-1-yl)-2-methylpyrimidin-4-yl]cyclopropyl}-1,3-benzothiazole]	43	–
Cc1nc([C@H]2C[C@@H]2c2nc3ncccc3n2C)cc(-n2nc(C)nc2C)n1 (stereo in doubt) [Cpd 80, 2-{2-[6-(3,5-dimethyl-1H-1,2,4-triazol-1-yl)-2-methylpyrimidin-4-yl]cyclopropyl}-1-methyl-1H-imidazo[4,5-b]pyridine]	> 75	–
Cc1nc([C@@H]2C[C@H]2c2ccc3ccccc3n2)cc(-n2nc(C)nc2C)n1 (relative stereo) [Cpd 127, trans-2-{2-[6-(3,5-dimethyl-1H-1,2,4-triazol-1-yl)-2-methylpyrimidin-4-yl]cyclopropyl}quinoline]	6	–
COc1ccc(Cc2nc(C)nn2-c2cc(C3CC3c3nc(C)no3)nc(C)n2)cc1OC (centres unmarked) [Cpd 24, 5-(2-(6-(5-(3,4-dimethoxybenzyl)-3-methyl-1H-1,2,4-triazol-1-yl)-2-methylpyrimidin-4-yl)cyclopropyl)-3-methyl-1,2,4-oxadiazole]	248	–
Cc1nc([C@@H]2C[C@H]2c2nc3ccccc3n2C(C)C)cc(-n2nc(C)nc2C)n1 (stereo in doubt) [Cpd 71, 2-{2-[6-(3,5-dimethyl-1H-1,2,4-triazol-1-yl)-2-methylpyrimidin-4-yl]cyclopropyl}-1-(1-methylethyl)-1H-benzimidazole]	13.6	–
COc1ccc(Cc2nc(C)nn2-c2cc([C@H]3C[C@@H]3c3nc4ccccc4[nH]3)nc(C)n2)cc1OC [Cpd 25, 2-((1S,2S)-2-(6-(5-(3,4-dimethoxybenzyl)-3-methyl-1H-1,2,4-triazol-1-yl)-2-methylpyrimidin-4-yl)cyclopropyl)-1H-benzo[d]imidazole]	0.027	–
COCCOc1nc([C@@H]2C[C@H]2c2nc3ccccc3n2C)cc(-n2nc(C)nc2C)n1 [Cpd 65, 2-{(1R,2R)-2-[6-(3,5-dimethyl-1H-1,2,4-triazol-1-yl)-2-(2-methoxyethoxy)pyrimidin-4-yl]cyclopropyl}-1-methyl-1H-benzimidazole]	1.08	–
